Measurements: US10954214B2 (Janssen Pharmaceutica NV, priority 2016, dated 2021)

Assays:
[1] = tested on: IL10 secretion by OCI-LY3 ABC-DLBCL cells; assay: Human IL10 Mesoscale assay (OCI-LY3); format: cell-based; details: Homo sapiens, 24 h
Outline: (§1)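 TMD8 or OCI-LY3 cells (100,000/well) were exposed to compounds in 9 twofold dilutions from 15 μM to 58.6 nM (0.3% DMSO) for 24 h at 37 °C. Supernatant IL6 and IL10 were quantified by MSD electrochemiluminescence immunoassay. DMSO defined maximum signal and BTK inhibitor RN486 (30 nM–131 pM) defined maximum inhibition.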

[2] = molecular target: full-length MALT1 protein (Strep-MALT1(1-824)-His) (Homo sapiens (Human), UniProt Q9UDY8); assay: MALT1 Biochemical Protease Assay (Ac-LRSR-AMC substrate); details: 10 nM FL MALT1, 200 μM Ac-LRSR-AMC, 4 h at RT; read-out: MALT1_Biochemical activity (Ac-LRSR-amc) IC50
full-length MALT1 protein (Strep-MALT1(1-824)-His), sequence (Q9UDY8 whole entry): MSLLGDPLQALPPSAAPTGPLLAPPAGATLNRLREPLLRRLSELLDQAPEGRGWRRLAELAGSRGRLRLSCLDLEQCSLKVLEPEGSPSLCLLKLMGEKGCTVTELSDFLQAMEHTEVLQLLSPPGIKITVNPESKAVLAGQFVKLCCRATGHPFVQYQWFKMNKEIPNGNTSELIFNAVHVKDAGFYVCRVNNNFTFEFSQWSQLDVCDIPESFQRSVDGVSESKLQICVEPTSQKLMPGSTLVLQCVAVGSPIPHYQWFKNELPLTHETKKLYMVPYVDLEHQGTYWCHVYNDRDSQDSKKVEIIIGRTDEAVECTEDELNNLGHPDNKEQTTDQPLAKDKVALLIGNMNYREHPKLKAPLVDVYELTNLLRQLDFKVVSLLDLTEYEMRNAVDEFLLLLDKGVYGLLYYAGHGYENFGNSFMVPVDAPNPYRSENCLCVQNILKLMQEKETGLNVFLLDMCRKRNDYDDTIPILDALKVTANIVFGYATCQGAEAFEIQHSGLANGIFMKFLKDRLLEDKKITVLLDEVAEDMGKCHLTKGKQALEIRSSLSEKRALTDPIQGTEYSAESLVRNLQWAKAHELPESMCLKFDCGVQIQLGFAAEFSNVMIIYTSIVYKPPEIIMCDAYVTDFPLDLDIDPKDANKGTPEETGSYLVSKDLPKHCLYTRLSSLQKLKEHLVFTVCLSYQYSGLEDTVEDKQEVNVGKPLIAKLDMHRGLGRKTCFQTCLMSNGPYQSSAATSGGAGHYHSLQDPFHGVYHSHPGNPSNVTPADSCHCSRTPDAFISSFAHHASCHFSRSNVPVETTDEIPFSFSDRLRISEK
Outline: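 Full-length MALT1 pre-incubated with compounds (30 μM to 0.5 nM, 11 threefold steps) for 50 min at RT. After Ac-LRSR-AMC was added, the reaction ran 4 h at RT and AMC fluorescence was read. IC50 and Hill slope from curve fitting against no-enzyme and no-compound controls.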

[3] = tested on: IL6 secretion by OCI-LY3 ABC-DLBCL cells; assay: Human IL6 Mesoscale assay (OCI-LY3); format: cell-based; details: Homo sapiens, 24 h
Outline: as §1

TMD8 cells = assay: 4-day proliferation assay, TMD8; format: cell-based; details: Homo sapiens, 96 h, 4 days incubation, CellTiterGLO, read-out: Anti-proliferation: TMD-8 IC50
Outline: (§2)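 TMD8 and OCI-Ly3 cells were seeded at 10,000 per well and grown 4 days at 37° C, 5% CO2 without beta-mercaptoethanol. Viability was read by CellTiter-Glo luminescence. IC50 and Hill slope were fitted relative to the low control median.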

OCI-Ly3 cells = assay: 4-day proliferation assay, OCI-Ly3; format: cell-based, human; details: Homo sapiens, 96 h, 4 days incubation, CellTiterGLO, read-out: Anti-proliferation: OCI-LY-3 IC50
Outline: as §2

Row | IC50 [1] [nM] | IC50 [2] [nM] | IC50 [3] [nM] | IC50 (OCI-Ly3 cells) [nM] | SMILES | IC50 (TMD8 cells) [nM]
1 | 31 | 10 | 28 | > 20000 | O=C(O)c1cnn(-c2ncc(NC(=O)c3cnn(-c4cccc5ncccc45)c3C(F)(F)F)cc2Cl)n1 [Cpd 109, 2-(3-chloro-5-(1-(quinolin-5-yl)-5-(trifluoromethyl)-1H-pyrazole-4-carboxamido)pyridin-2-yl)-2H-1,2,3-triazole-4-carboxylic acid] | > 20000
2 | 166 | 58 | 219 | 617 | N#Cc1cc(NC(=O)c2cnn(-c3ccc(F)c4ncccc34)c2C(F)(F)F)cnc1-n1nccn1 [Cpd 308, N-(5-cyano-6-(2H-1,2,3-triazol-2-yl)pyridin-3-yl)-1-(8-fluoroquinolin-5-yl)-5-(trifluoromethyl)-1H-pyrazole-4-carboxamide] | 4570
3 | 29 | 11 | 34 | 193 | N#Cc1cc(NC(=O)c2cnn(-c3cccc4ncsc34)c2C(F)(F)F)cnc1-n1nccn1 [Cpd 114, 1-(benzo[d]thiazol-7-yl)-N-(5-cyano-6-(2H-1,2,3-triazol-2-yl)pyridin-3-yl)-5-(trifluoromethyl)-1H-pyrazole-4-carboxamide] | 2690
4 | 174 | 110 | 191 | 1020 | O=C(Nc1cncc(C(F)(F)F)c1)c1cnn(-c2cccc3c(=O)[nH]ccc23)c1C(F)(F)F [Cpd 167, 1-(1-oxo-1,2-dihydroisoquinolin-5-yl)-5-(trifluoromethyl)-N-(5-(trifluoromethyl)pyridin-3-yl)-1H-pyrazole-4-carboxamide] | 4570
5 | 13 | 36 | 22 | 866 | Cc1nc(-n2nccn2)c(Cl)cc1NC(=O)c1cnn(-c2cncc3ccccc23)c1C(F)(F)F [Cpd 191, N-(5-chloro-2-methyl-6-(2H-1,2,3-triazol-2-yl)pyridin-3-yl)-1-(isoquinolin-4-yl)-5-(trifluoromethyl)-1H-pyrazole-4-carboxamide] | 912
6 | 26 | 15 | 29 | 432 | O=C(Nc1cnc(-c2ncco2)c(Cl)c1)c1cnn(-c2cccc3c(=O)[nH]ccc23)c1C(F)(F)F [Cpd 127, N-(5-chloro-6-(oxazol-2-yl)pyridin-3-yl)-1-(1-oxo-1,2-dihydroisoquinolin-5-yl)-5-(trifluoromethyl)-1H-pyrazole-4-carboxamide] | 11200
7 | 83 | 21 | 98 | 1310 | O=C(Nc1cnc(-n2cc(CO)cn2)c(Cl)c1)c1cnn(-c2cccc3ncccc23)c1C(F)(F)F [Cpd 135, N-(5-chloro-6-(4-(hydroxymethyl)-1H-pyrazol-1-yl)pyridin-3-yl)-1-(quinolin-5-yl)-5-(trifluoromethyl)-1H-pyrazole-4-carboxamide] | 3090
8 | 37 | 50 | 34 | 2320 | N#Cc1cc(NC(=O)c2cnn(-c3cccc4ocnc34)c2C(F)(F)F)cnc1-n1nccn1 [Cpd 311, 1-(benzo[d]oxazol-4-yl)-N-(5-cyano-6-(2H-1,2,3-triazol-2-yl)pyridin-3-yl)-5-(trifluoromethyl)-1H-pyrazole-4-carboxamide] | 3550
9 | 158 | 69 | 204 | 504 | O=C(Nc1cc(Cl)c(-n2nccn2)cc1F)c1cnn(-c2cccc3c(=O)[nH]ccc23)c1C(F)(F)F [Cpd 172, N-(5-chloro-2-fluoro-4-(2H-1,2,3-triazol-2-yl)phenyl)-1-(1-oxo-1,2-dihydroisoquinolin-5-yl)-5-(trifluoromethyl)-1H-pyrazole-4-carboxamide] | 4790
